Measured values reported in patent publication US12507703B2, “Methods, devices and compositions for preserving human milk” (The Trustees of Princeton University, priority 2023, dated 2025).
“And” between values parts separate entries of the source, which are not always exact repeats. Identical values can stand only once.

system: lipase; experiment: Lipase/lipolysis assay (EnzChek Lipase Substrate, quenched BODIPY-fatty acid conjugate) on stored human milk; note: test concentration or dose not given here

Compared with `CC(C)=CCC[C@](C)(O[C@@H]1O[C@H](CO[C@@H]2O[C@H](CO)[C@@H](O)[C@H](O)[C@H]2O)[C@@H](O)[C@H](O)[C@H]1O)[C@H]1CC[C@]2(C)[C@@H]1[C@H](O)C[C@@H]1[C@@]3(C)CC[C@H](O[C@@H]4O[C@H](CO)[C@@H](O)[C@H](O)[C@H]4O[C@@H]4O[C@H](CO)[C@@H](O)[C@H](O)[C@H]4O[C@@H]4OC[C@@H](O)[C@H](O)[C@H]4O)C(C)(C)[C@@H]3CC[C@]12C` [Notoginsenoside Fa], `Nc1ccccc1C(=O)C[C@H](N)C(=O)O` [L-Kynurenine] is lower in “Lipase (RFU)” value: 1075.493 RFU for the first, 761.0277 RFU for the second.

Going from `C[C@H](CC(=O)C[C@](C)(O)[C@@H]1CC(=O)[C@@]2(C)C3=C(C(=O)C[C@]12C)[C@@]1(C)CC[C@H](O)C(C)(C)[C@@H]1C[C@@H]3O)C(=O)O` [Ganoderic acid I] to `O=CC[C@H](O)[C@H](O)CO` [Thyminose], the “Lipase (RFU)” value falls from 969.9191 RFU to 811.3551 RFU.

Going from Ursolic acid acetate to `NC(=O)c1ccc[n+]([C@@H]2O[C@H](CO)[C@@H](O)[C@H]2O)c1.[Cl-]` [Nicotinamide riboside (chloride)], the “Lipase (RFU)” value rises from 811.3971 RFU to 991.823 RFU.

First: NC(=O)OP(=O)(O)O [Carbamyl Phosphate]
Second: COc1cc(COC(=O)CCCC/C=C/C(C)C)ccc1O [Capsiate]
The “Lipase (RFU)” value of the first is lower: 699.376 RFU for the first, 1078.823 RFU for the second.

First: CCN(CC)CCOC(=O)C(Cc1cccc2ccccc12)CC1CCCO1.O=C(O)C(=O)O (stereo not shown) [Naftidrofuryl (oxalate)]
Second: CCCCCCCCCCCCCCCCCC(=O)O[C@H](CC(=O)[O-])C[N+](C)(C)C [Stearoylcarnitine]
The “Lipase (RFU)” value of the first is higher: 1022.029 RFU for the first, 900.7392 RFU for the second.

Going from `C[C@]12CC[C@@H](O)C[C@H]1CC[C@@H]1[C@@H]2CC[C@]2(C)C(=O)CC[C@@H]12` [Etiocholanolone] to `O.O.OC[C@H]1O[C@H](O[C@H]2O[C@H](CO)[C@@H](O)[C@H](O)[C@H]2O)[C@H](O)[C@@H](O)[C@@H]1O` [D-(+)-Trehalose dihydrate], the “Lipase (RFU)” value rises from 868.806 RFU to 1045.976 RFU.

Going from `CCCCCCCCCCCCCCCC(=O)OC[C@H](COP(=O)([O-])OCC[N+](C)(C)C)OC(=O)CCCCCCCCCCCCCCC` [DPPC] to `O=C([O-])[O-].[Ca+2]` [Calcium carbonate], the “Lipase (RFU)” value falls from 959.6761 RFU to 646.797 RFU.

Compared with `O=C(C=Cc1ccc(O)c(O)c1)OC1CC(C(=O)O)=CC(O)C1O` (stereo not shown) [5-O-Caffeoylshikimic acid], `C=C(CC(=O)O)C(=O)O` [Itaconic Acid] is lower in “Lipase (RFU)” value: 1072.132 RFU for the first, 944.0433 RFU for the second.

First: Gluconate (Calcium)
Second: CC(C)=CCc1c(O)cc2oc3cc(O)c(O)c(CC=C(C)C)c3c(=O)c2c1O [Gamma-Mangostin]
The “Lipase (RFU)” value of the first is lower: 840.1946 RFU for the first, 1083.745 RFU for the second.

Compared with `CC(C)=CCC[C@](C)(O[C@@H]1O[C@H](CO[C@@H]2OC[C@H](O)[C@H](O)[C@H]2O)[C@@H](O)[C@H](O)[C@H]1O)[C@H]1CC[C@]2(C)[C@@H]1[C@H](O)C[C@@H]1[C@@]3(C)CC[C@H](O)C(C)(C)[C@@H]3[C@@H](O)C[C@]12C` [Ginsenoside F3], `Cn1cc(C(N)=O)ccc1=O` [Nudifloramide] is higher in “Lipase (RFU)” value: 878.0505 RFU for the first, 993.1021 RFU for the second.

Going from `COC(=O)[C@@]1(C)CC[C@]2(C(=O)O)CC[C@]3(C)C(=CC[C@@H]4[C@@]5(C)C[C@H](O)[C@H](O[C@@H]6OC[C@@H](O[C@@H]7O[C@H](CO)[C@@H](O)[C@H](O)[C@H]7O)[C@H](O)[C@H]6O)[C@@](C)(CO)[C@@H]5CC[C@]43C)[C@@H]2C1` [Esculentoside A] to `O=c1cc(-c2ccc(O)cc2)oc2cc(O)c([C@@H]3O[C@H](CO)[C@@H](O)[C@H](O)[C@H]3O[C@@H]3O[C@H](CO)[C@@H](O)[C@H](O)[C@H]3O)c(O)c12` [Meloside A], the “Lipase (RFU)” value rises from 755.0304 RFU to 811.3753 RFU.

Compared with `O=c1cc(O)c2ccccc2o1` [Compound 4-Hydroxycoumarin, 4-Hydroxycoumarin], `O=C(O)/C=C/c1c[nH]cn1` [Urocanic acid] is higher in “Lipase (RFU)” value: 929.4704 RFU for the first, 1101.226 RFU for the second.

Going from `C[C@@H]1O[C@@H](O[C@H]2[C@H](Oc3c(-c4ccc(O)cc4)oc4cc(O)cc(O)c4c3=O)O[C@H](CO)[C@@H](O)[C@@H]2O)[C@H](O)[C@H](O)[C@H]1O` [Kaempferol 3-neohesperidoside] to `CS(=O)(=O)CC[C@H](N)C(=O)O` [L-Methionine Sulfone], the “Lipase (RFU)” value falls from 1019.446 RFU to 897.1863 RFU.

Going from `OC[C@H]1O[C@H](OC[C@H]2OC(O)[C@H](O)[C@@H](O)[C@@H]2O)[C@H](O)[C@@H](O)[C@@H]1O` (stereo partly shown) [Isomaltose] to Maltotetraose, the “Lipase (RFU)” value falls from 1074.051 RFU to 824.2713 RFU.

First: CC(C)=CCC[C@](C)(O[C@@H]1O[C@H](CO)[C@@H](O)[C@H](O)[C@H]1O)[C@H]1CC[C@]2(C)[C@@H]1[C@H](O)C[C@@H]1[C@@]3(C)CC[C@H](O)C(C)(C)[C@@H]3[C@@H](O)C[C@]12C [Ginsenoside F1]
Second: O=P([O-])([O-])O[C@H]1O[C@H](CO)[C@H](O)[C@H](O)[C@H]1O.[K+].[K+] [Galactose 1-phosphate Potassium salt]
The “Lipase (RFU)” value of the first is lower: 975.1974 RFU for the first, 1112.021 RFU for the second.

Going from `COc1cc(O[C@@H]2O[C@H](CO[C@@H]3O[C@H](CO)[C@@H](O)[C@H](O)[C@H]3O)[C@@H](O)[C@H](O)[C@H]2O)c2c(O)c3c(=O)oc(C)cc3cc2c1` [Cassiaside C] to `CC(=O)N[C@@H](C)C(=O)O` [Ac-Ala-OH], the “Lipase (RFU)” value rises from 979.0974 RFU to 1189.332 RFU.

Compared with `COc1cc(-c2oc3cc(OC)c(OC)c(O)c3c(=O)c2OC)ccc1O` [Chrysosplenetin], `C=CCc1cc(OC)c2c(c1)OCO2` [Myristicin] is lower in “Lipase (RFU)” value: 1129.025 RFU for the first, 960.4671 RFU for the second.

First: NCCP(=O)(O)O [2-Aminoethyl Phosphonic Acid]
Second: CC(O)C(=O)[O-].CC(O)C(=O)[O-].[Ca+2] (stereo not shown) [Lactate (calcium)]
The “Lipase (RFU)” value of the first is higher: 863.4665 RFU for the first, 763.893 RFU for the second.

Compared with Lupeol acetate, `Nc1nc(=O)c2c([nH]1)NCC(CNc1ccc(C(=O)N[C@@H](CCC(=O)O)C(=O)O)cc1)N2C=O` (mixture of isomers) [Folinic acid] is lower in “Lipase (RFU)” value: 966.2407 RFU for the first, 949.4803 RFU for the second.

First: O=C(O)C(F)(F)F.O=C1N[C@@H](Cc2cnc[nH]2)C(=O)N2CCC[C@@H]12 [Cyclo(his-pro) (TFA)]
Second: CC(C)=CCC/C(C)=C/CC/C(C)=C/CC[C@]1(C)CCc2cc(O)cc(C)c2O1 [δ-Tocotrienol]
The “Lipase (RFU)” value of the first is lower: 956.1787 RFU for the first, 1061.05 RFU for the second.

Compared with (−)-Menthone, `Oc1ccc2c(c1)OCO2` [Sesamol] is lower in “Lipase (RFU)” value: 1263.606 RFU for the first, 995.7089 RFU for the second.

Compared with `OC[C@H]1O[C@@](CO)(OC[C@@]2(O[C@H]3O[C@H](CO)[C@@H](O)[C@H](O)[C@H]3O)O[C@H](CO)[C@@H](O)[C@@H]2O)[C@@H](O)[C@@H]1O` [Compound 1-Kestose], `COc1ccc(-c2cc(=O)c3c(O)cc(O[C@@H]4O[C@H](CO)[C@@H](O)[C@H](O)[C@H]4O[C@@H]4O[C@@H](C)[C@H](O)[C@@H](O)[C@H]4O)cc3o2)cc1O` [Neodiosmin] is lower in “Lipase (RFU)” value: 1115.168 RFU for the first, 928.3945 RFU for the second.

Going from `OCCc1c[nH]c2ccc(O)cc12` [5-Hydroxytryptophol] to `COc1cc2c(=O)c(-c3ccc(O)cc3)coc2cc1O[C@@H]1O[C@H](CO)[C@@H](O)[C@H](O)[C@H]1O` [Glycitin], the “Lipase (RFU)” value rises from 681.6533 RFU to 799.4163 RFU.

Compared with Maltohexaose, `CC(CC(=O)CC(C)(O)C1CC(=O)C2(C)C3=C(C(=O)CC12C)C1(C)CCC(=O)C(C)(C)C1CC3O)C(=O)O` (stereo not shown) [Ganoderic acid N] is lower in “Lipase (RFU)” value: 977.7036 RFU for the first, 866.924 RFU for the second.

Going from `C=C1C(=O)O[C@@H]2C[C@@]3(C)CCC[C@H](C)C3=C[C@H]12` [Alantolactone] to Eicosadienoic acid, the “Lipase (RFU)” value falls from 900.1725 RFU to 795.3404 RFU.

Compared with `COc1cc(/C=C/C(=O)NCC(O)c2ccc(O)cc2)ccc1O` (stereo not shown) [N-Feruloyloctopamine], `CC(=O)O[C@H](CC(=O)O)C[N+](C)(C)C.[Cl-]` [Acetyl-L-carnitine (hydrochloride)] is higher in “Lipase (RFU)” value: 893.4142 RFU for the first, 1004.353 RFU for the second.

Going from `C[C@H]1[C@H](C)CC[C@]2(C)CC[C@]3(C)C(=CC[C@@H]4[C@@]5(C)CC[C@@H](O)[C@](C)(C(=O)O)[C@@H]5CC[C@]43C)[C@H]12` [β-Boswellic acid] to `CC1(C)Oc2cc3oc(-c4cc(O)cc(O)c4)cc3cc2C[C@H]1O` [Moracin P], the “Lipase (RFU)” value falls from 813.2666 RFU to 751.9577 RFU.

Compared with `CCCC=C1OC(=O)c2ccccc21` [3-Butylidenephthalide], `CN(C)C(N)=NCCC[C@H](N)C(=O)O` [Asymmetric dimethylarginine] is lower in “Lipase (RFU)” value: 952.6722 RFU for the first, 806.9828 RFU for the second.

Compared with `Oc1cc(O)c2c(c1)OC1(c3ccc(O)c(O)c3)Oc3cc(O)c4c(c3C2C1O)OC(c1ccc(O)c(O)c1)C(O)C4` (stereo not shown) [Procyanidin A1], `O=C(O)CCCC(=O)O` [Glutaric acid] is lower in “Lipase (RFU)” value: 1206.886 RFU for the first, 944.8681 RFU for the second.

First: C[C@H](CCC(=O)O)[C@H]1CC[C@H]2[C@@H]3[C@@H](O)C[C@@H]4C[C@H](O)CC[C@]4(C)[C@H]3C[C@H](O)[C@]12C [Ursocholic acid]
Second: CC(C)=CCC[C@](C)(O)[C@H]1CC[C@]2(C)[C@@H]1[C@H](O)C[C@@H]1[C@@]3(C)CC[C@H](O[C@@H]4O[C@H](CO)[C@@H](O)[C@H](O)[C@H]4O[C@@H]4O[C@H](CO)[C@@H](O)[C@H](O)[C@H]4O)C(C)(C)[C@@H]3CC[C@]12C [20(S)-Ginsenoside Rg3]
The “Lipase (RFU)” value of the first is lower: 879.9608 RFU for the first, 979.4673 RFU for the second.

Compared with `COc1ccc2[nH]cc(CCO)c2c1` [5-Methoxytryptophol], `OC[C@@H](O)[C@@H](O[C@H]1O[C@H](CO)[C@@H](O)[C@H](O)[C@H]1O)[C@H](O)[C@@H](O)CO` [Maltitol] is lower in “Lipase (RFU)” value: 1031.531 RFU for the first, 943.5543 RFU for the second.

For `COC(=O)c1ccc(OC)cc1` [Methyl anisate], the “Lipase (RFU)” value was 1101.708 RFU and 911.2014 RFU.
For β-Alanine, the “Lipase (RFU)” value was 882.8696 RFU and 1205.931 RFU.
With `CC(C)=CCC/C(C)=C/CC/C(C)=C/CC[C@]1(C)CCc2cc(O)c(C)c(C)c2O1` [γ-Tocotrienol] the “Lipase (RFU)” value was 703.9438 RFU and 665.753 RFU.
With `CC(C)=C1CC[C@@H](C)CC1=O` [Pulegone] the “Lipase (RFU)” value was 791.7693 RFU and 1146.187 RFU.
With `O=P(O)(O)OP(=O)(O)O` [Pyrophosphate] the “Lipase (RFU)” value was 1218.619 RFU and 873.0451 RFU.
